Test: in vitro
Details: human, hela cells, % viability

Compound | viability at 28.5 h, 10 µM [%]
CN(C)S(=O)(=O)c1ccc(Cl)c(C(=O)Nc2cccc(O)c2)c1 [CBK265723] | 113
OC(CN1CCN(Cc2ccc3c(c2)OCO3)CC1)C(F)(F)F (centres unmarked) [CBK074833] | 108
CCN(CC)C(=O)c1cnoc1-c1ccc(Br)cc1 [CBK153725] | 94.4
CC(=O)c1c(C)oc2ccc(O)c(CN3CCOCC3)c12 [CBK160396] | 104
COCCCNC(=O)c1cnn2c(C)c(Cc3ccccc3Br)c(C)nc12 [CBK071628] | 101
Cc1ccc(/C=C/C(=O)N2CCC3(CC2)CC(=O)c2cc(Cl)ccc2O3)cc1 [CBK156439] | 95.1
COc1ccc(NC(=O)N[C@H]2C[C@@H](c3nc(-c4ccc(OC)cc4)no3)N(C)C2)cc1 [CBK288862] | 102
CN(CCc1ccccn1)Cc1cc(Br)cs1 [CBK021314] | 92.8
CCOC(=O)c1cn([C@H](CO)CCSC)cc(Oc2ccccc2)c1=O [CBK307349] | 98.9
O=C(CN1C(=O)c2ccccc2C1=O)OCC(=O)N1c2ccccc2Sc2ccccc21 [CBK264701] | 91.8
O=C(O)C1(Cc2ccc(-c3cccs3)cc2)CCNC1 (centres unmarked) [CBK281679] | 90.8
Cn1cc(CCNC(=O)N(Cc2ccccn2)CC2CCCO2)cn1 (centres unmarked) [CBK306973] | 99.2
Cc1ccc(S(=O)(=O)Nc2ccc3c(c2)CC(=O)N3)cc1 [CBK287657] | 92.1
O=C(c1ccc(-c2cnc3[nH]c(=O)n(Cc4ccccn4)c3n2)cc1)N1CCOCC1 [CBK064413] | 110
O=C(CC1NCCNC1=O)Nc1cccc(Cl)c1 (centres unmarked) [CBK266454] | 105
CN(C)C(=O)CO[C@@H]1CO[C@H]2[C@@H]1OC[C@@H]2Nc1nccc(-c2cccs2)n1 [CBK289515] | 109
c1ccc(Nc2nc3nonc3n3cnnc23)cc1 [CBK287278] | 105
CCC(c1ccc2ccccc2c1)c1c(O)c2ccccc2oc1=O (centres unmarked) [CBK016681] | 96.7
COc1ccc(C(=O)CSc2nnc(-c3ccccc3)[nH]2)cc1[N+](=O)[O-] [CBK263299] | 97.4
OC1CCn2c1nc1cc(Cl)ccc12 (centres unmarked) [CBK113623] | 79.2
CS(=O)(=O)N1CCC(C(=O)NC(c2ccccc2)c2cnccn2)CC1 (centres unmarked) [CBK059901] | 105
CC1CCC(N(C)Cc2nc3sc4c(c3c(=O)[nH]2)CCC4)CC1 (centres unmarked) [CBK305876] | 88.7
O=C(NCCn1cccn1)N1CCCN(Cc2ccncc2)CC1 [CBK307129] | 90.1

Compound | viability at 28.5 h, 10 µM [%]
Cc1cc(Cl)ccc1CNC(=O)C1=CC(=O)CC(C)(C)O1 [CBK153282] | 97.5
COc1ccccc1CN(CCN(C)C)C(=O)Cc1c(C)[nH]c(=O)[nH]c1=O [CBK286343] | 94.2
CC1(C)CC(=O)C2=C(C1)c1c(ccc3ccccc13)NC2c1ccc(N2CCC(Cc3ccccc3)CC2)c([N+](=O)[O-])c1 (centres unmarked) [CBK262944] | 94.2
COc1ccc(-c2cc(C(F)(F)F)nc(SCC(=O)N(C)c3ccccc3)n2)cc1OC [CBK267628] | 112
O=C(O)Cc1c[nH]c2ccccc12 [CBK228897G] | 102
O=C(O)c1ccc2c(c1)C(=O)N(c1ccc(/C=C/C(=O)c3ccccc3)cc1)C2=O [CBK261181] | 79.6
O=C(O)CSc1nnc2n(-c3ccccc3)c3ccccc3n12 [CBK268557] | 106
O=C(O)CNC(=O)c1ccc(S(=O)(=O)N2CCCC2)cc1 [CBK267434] | 87
CC(=O)C(C)Oc1ncn(-c2ccccc2)n1 (centres unmarked) [CBK008377] | 101
COc1ccc(OC(C)C(=O)Nc2ccc(S(N)(=O)=O)cc2)cc1 (centres unmarked) [CBK263646] | 96
N#Cc1c(NC(=O)CSc2nnc(N)s2)sc2c1CCCC2 [CBK266649] | 99.8
O=C(CN1C(=O)N2CCN=C2c2ccc(Cl)cc21)NCC1CC1 [CBK282877] | 94.2
COc1cc(NC(=O)c2c(C)[nH]c(=O)[nH]c2=S)cc(C(F)(F)F)c1 [CBK115495] | 92.3
N#Cc1c(NC(=O)CCn2cnnn2)sc2c1CCC2 [CBK270041] | 93.5
Nc1nnc(C(F)(F)F)s1 [CBK038099] | 119
CCc1nc(NC(=O)c2ccnc(Cl)c2)sc1C [CBK298287] | 101
CC(C)(C)C1=CC2=NC3(CCS(=O)(=O)CC3)[C@@H]3C[C@@H](O)[C@@H](O)[C@@H]3N2O1 [CBK303247] | 92
COc1ccc(C(=O)Nc2ccccc2C(=O)NCCCC(=O)O)cc1 [CBK287024] | 111
O=C(CSc1nc2ccccc2s1)OCc1ccc([N+](=O)[O-])cc1 [CBK262547] | 91.1
O=C1CC(N2CCN(CCc3ccncc3)CC2)C(=O)N1c1ccc(Cl)cc1 (centres unmarked) [CBK270078] | 85.6
CCCc1nnc(NC(=O)CN2CCc3c(c(CO)nn3C)C2)s1 [CBK307172] | 98.4
O=C(Nc1ccc(F)cc1)c1ccccc1NS(=O)(=O)c1ccc(Br)cc1 [CBK045438] | 100
Cc1ccc(CN[C@@H]2COC[C@H]2Cc2cc(C)no2)cc1 [CBK283030] | 106

Compound | viability at 28.5 h, 10 µM [%]
Nc1ccn(C2OC(CO)C(O)C2O)c(=O)n1 (centres unmarked) [CBK024684] | 108
O=C(CSC1=NC(=O)C(Cc2ccccc2)C(=O)N1)Nc1ncccn1 (centres unmarked) [CBK263906] | 120
O=C(O)c1ccc2c(c1)C(=O)N(CCCN1CCOCC1)C2=O [CBK269245] | 102
O=C(Oc1ccc2c(c1)C1C=CCC1C(C(=O)O)N2)c1ccc(Cl)cc1Cl (centres unmarked) [CBK265285] | 94.2
Cc1c(CN2CCC(N(C)CCN(C)C)CC2)oc2ccccc12 [CBK282038] | 86.1
CC(=O)N1CCc2c(sc3nc(N)c(C(=O)NCCc4ccc(F)cc4)c(C(F)(F)F)c23)C1 [CBK269176] | 94.4
Cc1nc2ccccc2c(SCCC(=O)O)c1Cc1ccccc1 [CBK144942T] | 88.9
COc1ccccc1NC(=S)NCCc1ccc(S(N)(=O)=O)cc1 [CBK266201] | 95.1
CCOc1ccc(OC(=O)c2ccc(OC(F)(F)F)cc2)cc1 [CBK149207] | 95.8
COC(=O)c1ccc(NC(=O)COn2nnc3ccc([N+](=O)[O-])cc32)cc1 [CBK267106] | 94.3
CC(C)S(=O)(=O)N1C[C@@H](c2ccccc2)[C@H]2[C@H]1CCCCCN2C [CBK283083] | 91.1
Cn1ccnc1C(NC(=O)c1ccncc1)c1ccc(F)c(F)c1 (centres unmarked) [CBK283808] | 104
C(#Cc1csc(COc2cncc(N3CCNCC3)n2)c1)c1ccccc1 [CBK200006G] | 92.5
CCNC(=O)Nc1ccc2c(-c3ccccc3)ccnc2n1 [CBK070668] | 95.6
O=C(c1cc(F)cc(F)c1)N1CCC(n2cnc3cccnc32)CC1 [CBK283636] | 88.6
CN1CCN(c2nc(NS(=O)(=O)c3ccc(OC(F)(F)F)cc3)cc3ccccc23)CC1 [CBK002978C] | 87.7
CC1(C)CC(=O)c2sc(NC(=O)CN3C(=O)CCC3=O)nc2C1 [CBK287558] | 98.2
Cc1cnc(Cl)c2ncn([C@H]3C[C@@H](O)[C@@H](CO)O3)c12 [CBK201234] | 97.7
O=C(c1ccc(F)cc1)C1CCN(Cc2cc(=O)[nH]c(=O)[nH]2)CC1 [CBK149132] | 91.8
O=C1Nc2cc(Cl)ccc2C(=O)N2CCN(C(=O)C3CCCCC3)C[C@H]12 [CBK289586] | 87.1
c1ccc(-n2ncc3c(N4CCCC4)ncnc32)cc1 [CBK287357] | 86.6
c1cncc(-c2nnc([C@H]3CCN(C4CCOCC4)C3)o2)c1 [CBK289398] | 93.5
CCOC(=O)c1c(NC(=O)CCN2CCCCC2)sc2c1CCCCC2 [CBK265319G] | 89.9

Compound | viability at 28.5 h, 10 µM [%]
CCCCCOc1ccc(Nc2ccc(-c3cccnc3)cn2)cc1 [CBK036948] | 109
CC(C)c1ccc(CN2CCC3(CC2)CN(CCO)c2ccccc23)cc1 [CBK122708] | 93.4
CN1CCN(CCC(=O)N2CCN(C(=O)c3ccco3)CC2)CC1 [CBK144481] | 89.3
CCn1ncc(CN2CCCCCC2c2cc(C)no2)c1C (centres unmarked) [CBK283008] | 92.9
COc1cc(Nc2cncc(-c3ccc(O)cc3)n2)c(Cl)cc1C(=O)NCC(F)(F)F [CBK126470] | 82.9
CC(=O)c1[nH]c(C)c(C(=O)N(C)Cc2cc(-c3ccncc3)no2)c1C [CBK306681] | 97
Nc1ncc(-c2occc2C=O)nc1NC1CCOCC1 [CBK063789] | 103
O=C(O)CCn1c(CO)nc2ccccc21 [CBK111473] | 115
COc1cc(OC)cc(-c2nnc(SCc3cccc(C(=O)O)c3)[nH]2)c1 [CBK268736] | 108
CCSc1nnnn1-c1cccc(NC(C)=O)c1 [CBK305511] | 94.4
O=C(/C=C/c1cn(C2CC(O)C(CO)O2)c(=O)[nH]c1=O)NCCNC(=O)C(F)(F)F (centres unmarked) [CBK201214] | 98.2
COc1ccccc1N(CC(=O)Nc1c(C)cccc1C)S(=O)(=O)c1ccc(C)cc1 [CBK264810] | 96.5
CCN(CC)C(=O)CN1C(=O)N2CCN=C2c2ccccc21 [CBK283944] | 94.9
O=C(CSc1nc[nH]n1)Nc1ccccc1[N+](=O)[O-] [CBK265005] | 100
COC(=O)c1ccccc1NC(=O)CSc1nnnn1C [CBK267441] | 90
c1nn(C2CCCCC2)cc1-c1cncn1CCCN1CCCCC1 [CBK281495] | 97.5
O=C(Nc1cccc(Cl)c1)N[C@H]1C[C@H]2C(=O)NC[C@@H](CCC(=O)N3CCCC3)N2C1 [CBK289003] | 96.1
O=C(C1CCC1)N1CCC2(CC1)Nc1cccnc1-n1cccc12 [CBK284505] | 92.5
Nc1nc(=O)c2cnc3c(F)cccc3c2s1 [CBK291249] | 91.1
CCn1c(C)cc2cc(NS(=O)(=O)c3cn(C)nc3C)ccc21 [CBK282789] | 93.5
